Reference: patent US6794397B2, “Substituted nicotinamides and analogs as activators of caspases and inducers of apoptosis and the use thereof” (Cytovia, Inc., priority 2000, dated 2004)
Read-outs that look alike come from different tables or passages of the source.

Tests used:
T47D = assay: Caspase cascade activation assay (N-(Ac-DEVD)-N'-ethoxycarbonyl-R110 fluorogenic substrate) in T47D cells; type: cell-based, Human; settings: 24 h incubation; for EC50 / EC50 (nM) caspase potency: sigmoidal dose-response; for EC50: read-out: EC50 (nM) caspase potency; for Caspase activity Ratio: ratio of net RFU of test compound to control, 0.16 to 10 μM final
Description: (§1) Human breast cancer cell lines T47D and ZR75-1 were grown according to media component mixtures designated by American Type Culture Collection +10% FCS (Invitrogen Corporation, Life Technologies Division), in a 5% CO2 −95% humidity incubator at 37° C. T47D and ZR75-1 cells were maintained at a cell density between 30 and 80% confluency at a cell density of 0.1 to 0.6×10^6 cells/ml. Cells were harvested at 600xg and resuspended at 0.65×10^6 cells/ml into appropriate media +10% FCS. An aliquot of 45 μl of cells was added to a well of a 96-well microtiter plate containing 5 μl of a 10% DMSO in RPMI-1640 media solution containing 1.6 to 100 μM of N-(4-methoxy-2-nitrophenyl)-3-pyridinecarboxamide or other test compound (0.16 to 10 μM final). An aliquot of 45 μl of cells was added to a well of a 96-well microtiter plate containing 5 μl of a 10% DMSO in RPMI-1640 media solution without test compound as the control sample. The samples were mixed by agitation and then incubated at 37 C. for 24 h in a 5% CO2 −95% humidity incubator. After incubation, the samples were removed from the incubator and 50 μl of a solution containing 20 μM of N-(Ac-DEVD)-N′-ethoxycarbonyl-R110 (SEQ ID NO: 1) fluorogenic substrate (Cytovia, Inc.; WO99/18856), 20% sucrose (Sigma), 20 mM DTT (Sigma), 200 mM NaCl (Sigma), 40 mM Na PIPES buffer pH 7.2 (Sigma), and 500 μg/ml lysolecithin (Calbiochem) was added. The samples were mixed by agitation and incubated at room temperature. Using a fluorescent plate reader (Model 1420 Wallac Instruments), an initial reading (T=0) was made approximately 1-2 min after addition of the substrate solution, employing excitation at 485 nm and emission at 530 nm, to determine the background fluorescence of the control sample. After the 3 h incubation, the samples were read for fluorescence as above (T=3 h).
(§2) The Relative Fluorescence Unit values (RFU) were used to calculate the sample readings as follows:
(§3) RFU(T=3h)−Control RFU(T=0)=Net RFU(T=3h).
(§4) The activity of caspase cascade activation was determined by the ratio of the net RFU value for N-(4-methoxy-2-nitrophenyl)-3-pyridinecarboxamide or other test compound to that of control samples. The EC50 (nM) was determined by a sigmoidal dose-response calculation (Prism 2.0, GraphPad Software Inc.).

ZR75-1 = assay: Caspase cascade activation assay (N-(Ac-DEVD)-N'-ethoxycarbonyl-R110 fluorogenic substrate) in ZR75-1 cells; type: cell-based, Human; settings: for EC50 / EC50 (nM) caspase potency: sigmoidal dose-response; for EC50: read-out: EC50 (nM) caspase potency; for Caspase activity Ratio: ratio of net RFU of test compound to control, 0.16 to 10 μM final
Description: as §1, §2, §3, §4

[1] = Homo sapiens, ZR-75-1, 24 h incubation

EC50 (T47D) [nM] | EC50 (ZR75-1; 24 h incubation) [nM] | EC50 (T47D; Homo sapiens) [nM] | EC50 (ZR75-1; [1]) [nM] | EC50 (nM) caspase potency (T47D) | EC50 (nM) caspase potency (ZR75-1; 24 h incubation) | Compound | Caspase activity Ratio (T47D) | Caspase activity Ratio (ZR75-1; 24 h incubation)
6750 | 3840 | – | – | – | – | 4-Chloro-N-(4-ethoxy-2-nitrophenyl)-benzoylamide [Example 18] | 3.0 | 5.1
– | – | 2970 | 729 | – | – | O=C(Nc1ccc(C(F)(F)F)cc1[N+](=O)[O-])c1ccc(Cl)nc1 [Example 1, 6-Chloro-N-(2-nitro-4-trifluoromethylphenyl)-3-pyridinecarboxamide] | 8.9 | 3.6
– | – | 587 | 329 | – | – | O=C(Nc1ccc(Cl)cc1[N+](=O)[O-])c1ccc(Cl)nc1 [Example 2, 6-Chloro-N-(4-chloro-2-nitrophenyl)-3-pyridinecarboxamide] | 7.8 | 5.8
– | – | – | 4620 | Inactive | – | O=C(Nc1ccc(F)cc1[N+](=O)[O-])c1ccc(Cl)nc1 [Example 3, 6-Chloro-N-(4-fluoro-2-nitrophenyl)-3-pyridinecarboxamide] | Inactive | 2.1
– | – | – | 4030 | Inactive | – | COc1cc([N+](=O)[O-])c(NC(=O)c2ccc(Cl)nc2)cc1Br [Example 4, 6-Chloro-N-(3-bromo-4-methoxy-6-nitrophenyl)-3-pyridinecarboxamide] | Inactive | 3.2
– | – | – | – | Inactive | Inactive | COc1ccc(NC(=O)c2ccc(Cl)nc2)c(OC)c1 [Example 5, 6-Chloro-N-(2,4-dimethoxyphenyl)-3-pyridinecarboxamide] | Inactive | Inactive
– | – | – | – | Inactive | Inactive | COc1ccc(NC(=O)c2cccnc2Cl)c([N+](=O)[O-])c1 [Example 6, 2-Chloro-N-(4-methoxy-2-nitrophenyl)-3-pyridinecarboxamide] | Inactive | Inactive
– | – | 593 | 230 | – | – | COc1ccc(NC(=O)c2ccc(Cl)nc2)c([N+](=O)[O-])c1 [Example 7, 6-Chloro-N-(4-methoxy-2-nitrophenyl)-3-pyridinecarboxamide] | 8.1 | 2.7
– | – | 920 | 488 | – | – | Cc1ccc(NC(=O)c2ccc(Cl)nc2)c([N+](=O)[O-])c1 [Example 9, 6-Chloro-N-(4-methyl-2-nitrophenyl)-3-pyridinecarboxamide] | 5.4 | 5.0
– | – | – | – | Inactive | Inactive | O=C(Nc1ccccc1[N+](=O)[O-])c1ccc(Cl)nc1 [Example 10, 6-Chloro-N-(2-nitrophenyl)-3-pyridinecarboxamide] | Inactive | Inactive
– | – | – | – | Inactive | Inactive | COc1ccc(NC(=O)c2ccc(Cl)nc2)cc1 [Example 11, 6-Chloro-N-(4-methoxyphenyl)-3-pyridinecarboxamide] | Inactive | Inactive
– | – | – | – | Inactive | Inactive | COc1ccc(NC(=O)c2cc(Cl)nc(Cl)c2)c([N+](=O)[O-])c1 [Example 12, 2,6-Dichloro-N-(4-methoxy-2-nitrophenyl)-4-pyridinecarboxamide] | Inactive | Inactive
– | – | – | – | Inactive | Inactive | COc1ccc(NC(=O)c2cnc(Cl)nc2C(F)(F)F)c([N+](=O)[O-])c1 [Example 13, 2-Chloro-4trifluoromethyl-N-(4methoxy-2-nitrophenyl)-5-pyrimidinecarboxamide] | Inactive | Inactive
– | – | – | – | Inactive | Inactive | COc1ccc(NC(=O)c2ccncc2)c([N+](=O)[O-])c1 [Example 14, N-(4-methoxy-2-nitrophenyl)-4-pyridinecarboxamide] | Inactive | Inactive
– | – | – | – | Inactive | Inactive | COc1ccc(NC(=O)c2ccc(Cl)nc2Cl)c([N+](=O)[O-])c1 [Example 15, 2,6-Dichloro-N-(4-methoxy-2-nitrophenyl)-3-pyridinecarboxamide] | Inactive | Inactive
– | – | – | – | Inactive | Inactive | COc1ccc(NC(=O)c2cnc(Cl)c(Cl)c2)c([N+](=O)[O-])c1 [Example 16, 5,6-Dichloro-N-(4-methoxy-2-nitrophenyl)-3-pyridinecarboxamide] | Inactive | Inactive
– | – | 3550 | 6880 | – | – | O=C(Nc1cc(F)c(F)cc1[N+](=O)[O-])c1ccc(Cl)nc1 [Example 19, 6-Chloro-N-(4,5-difluoro-2-nitrophenyl)-3-pyridinecarboxamide] | 2.7 | 3.8
– | – | – | – | Inactive | Inactive | COc1ccc(NC(=O)c2ccc(Cl)nc2)c(C)c1 [Example 20, 6-Chloro-N-(4-methoxy-2-methylphenyl)-3-pyridinecarboxamide] | Inactive | Inactive
– | – | – | 4670 | Inactive | – | N#Cc1ccc(NC(=O)c2ccc(Cl)nc2)c([N+](=O)[O-])c1 [Example 21, 6-Chloro-N-(4-cyano-2-nitrophenyl)-3-pyridinecarboxamide] | Inactive | 2.3
– | – | 466 | 295 | – | – | CCOc1ccc(NC(=O)c2ccc(F)nc2)c([N+](=O)[O-])c1 [Example 22, 6-Fluoro-N-(4-ethoxy-2-nitrophenyl)-3-pyridinecarboxamide] | 7.6 | 6.6
608 | 171 | – | – | – | – | O=C(Nc1ccc(OC(F)(F)F)cc1[N+](=O)[O-])c1ccc(Cl)nc1 [Example 23, 6-Chloro-N-(2-nitro-4-tifluoromethoxyphenyl)-3-pyridinecarboxamide] | 7.2 | 9.9
– | – | – | – | Inactive | Inactive | O=C(Nc1ccc(C(=O)c2ccccc2)cc1[N+](=O)[O-])c1ccc(Cl)nc1 [Example 24, 6-Chloro-N-(4-benzoyl-2-nitrophenyl)-3-pyridinecarboxamide] | Inactive | Inactive
– | – | 345 | 133 | – | – | O=C(Nc1ccc(OCc2ccccc2)cc1[N+](=O)[O-])c1ccc(Cl)nc1 [Example 25, 6-Chloro-N-(4-benzyloxy-2-nitrophenyl)-3-pyridinecarboxamide] | 5.8 | 6.6
– | – | 42 | 20 | – | – | CCOc1ccc(NC(=O)c2ccc(C)nc2)c([N+](=O)[O-])c1 [Example 26, 6-Methyl-N-(4-ethoxy-2-nitrophenyl)-3-pyridinecarboxamide] | 5.5 | 3.2
– | – | – | – | Inactive | Inactive | Cc1cc(NC(=O)c2ccc(Cl)nc2)c([N+](=O)[O-])cc1C [Example 27, 6-Chloro-N-(4,5-dimethyl-2-nitrophenyl)-3-pyridinecarboxamide] | Inactive | Inactive

Compound | EC50 (T47D) [nM] | EC50 (ZR75-1; 24 h incubation) [nM] | EC50 (T47D; Homo sapiens) [nM] | EC50 (ZR75-1; [1]) [nM] | EC50 (nM) caspase potency (T47D) | EC50 (nM) caspase potency (ZR75-1; 24 h incubation) | Caspase activity Ratio (T47D) | Caspase activity Ratio (ZR75-1; 24 h incubation)
O=C(Nc1ccc([N+](=O)[O-])cc1[N+](=O)[O-])c1ccc(Cl)nc1 [Example 17, 6-Chloro-N-(2,4-dinitrophenyl)-3-pyridinecarboxamide] | – | – | – | – | Inactive | Inactive | Inactive | Inactive
